Source: paper PMC10223019, “Preclinical Evaluation of a PSMA-Targeting Homodimer with an Optimized Linker for Imaging of Prostate Cancer” (Molecules, 2023)
Values joined by “and” are separate entries in the source; they are usually repeats but may differ in a detail not shown here. Equal values may be shown once.

Legend:
[1] = molecular target: T1, Recombinant human PSMA (rhPSMA) (Homo sapiens, UniProt Q04609); test: NAALADase assay (competitive inhibition, Amplex Red glutamate readout); assay type: biochemical; details: rhPSMA, substrate Ac-Asp-Glu, 1 h 37 °C
T1 construct: purchased R&D systems, Abingdon, UK
T1 sequence (Q04609 whole entry): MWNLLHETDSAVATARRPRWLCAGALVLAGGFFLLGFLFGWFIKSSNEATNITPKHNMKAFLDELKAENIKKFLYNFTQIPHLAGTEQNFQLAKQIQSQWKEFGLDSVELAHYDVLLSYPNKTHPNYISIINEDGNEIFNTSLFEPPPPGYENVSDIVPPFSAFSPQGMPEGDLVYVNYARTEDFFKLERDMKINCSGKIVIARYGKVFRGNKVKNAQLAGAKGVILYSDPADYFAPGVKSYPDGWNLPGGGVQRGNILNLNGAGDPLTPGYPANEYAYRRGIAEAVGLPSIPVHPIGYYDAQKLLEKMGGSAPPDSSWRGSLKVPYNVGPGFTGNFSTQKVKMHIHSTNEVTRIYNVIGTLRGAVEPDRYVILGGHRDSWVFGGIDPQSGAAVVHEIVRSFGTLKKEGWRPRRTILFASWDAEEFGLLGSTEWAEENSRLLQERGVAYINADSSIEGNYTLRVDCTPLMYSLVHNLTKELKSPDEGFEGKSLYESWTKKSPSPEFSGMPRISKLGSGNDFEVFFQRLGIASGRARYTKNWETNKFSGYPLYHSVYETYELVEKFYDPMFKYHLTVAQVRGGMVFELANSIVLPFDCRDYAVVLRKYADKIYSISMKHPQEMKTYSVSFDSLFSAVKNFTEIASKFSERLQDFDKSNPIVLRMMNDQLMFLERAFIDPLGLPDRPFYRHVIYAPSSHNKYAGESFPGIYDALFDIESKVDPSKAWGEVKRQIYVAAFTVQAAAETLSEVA
Procedure: Recombinant human PSMA (rhPSMA; R&D systems, Abingdon, UK) was diluted in assay buffer (50 mM HEPES, 0.1 M NaCl, pH 7.5) to 0.4 μg/mL. The substrate Ac–Asp–Glu (40 μM) was mixed with the synthesized derivatives and with a reference (PSMA-617) at concentrations ranging from 10^−6 to 10^−13 M in a final volume of 12.5 μL assay buffer. The mixtures were combined with 12.5 μL of the rhPSMA solution and incubated for 1 h at 37 °C in 384-well black polystyrene microplates (ThermoFisher, Bleiswijk, The Netherlands). The amount of glutamate released was measured by incubating with 25 μL of a working solution of the Amplex Red glutamic acid kit (ThermoFisher, Bleiswijk, The Netherlands) at 37 °C for 30 min. Fluorescence was measured with a HIDEX Sense Optical System (Goedereede, The Netherlands) with excitation at 535 nm and emission at 590 nm. Data were normalized and analyzed using a one-site total binding regression with GraphPad Prism v9.0 (GraphPad Software, San Diego, CA, USA).

[2] = Stability in aqueous solution (LC-MS); assay type: physicochemical; details: water, room temperature
Procedure: Dimerization was performed by elongation of 16 with 3-tritylthiopropionic acid, and reaction with 3,6-dichlorotetrazine following a biphasic protocol after cleavage from the solid support. Finally, addition of the chelator DOTA-TCO 26 was performed via the inverse electron-demand Diels–Alder reaction (IEDDA) to yield the dimeric product 27. However, it was noticed that 27 was not stable in aqueous solution, with degradation observed by LC-MS 20 min after incubation in water at room temperature. […] We hypothesized that it could originate from intramolecular interaction between the sulfur and the carboxylic acid group of the aspartic acid. Therefore, we modified the design of the dimer to include a longer spacer between 16 and the tetrazine. We replaced the 3-mercaptopropionic acid with a 6-mercaptohexanoic acid spacer. The resulting compound 30 (Scheme 2), obtained after dimerization and IEDDA reaction, was radiolabeled with In-111 and obtained in high RCY (>99%) and RCP (92.3%). It was stable in aqueous media and in the radiolabeling conditions, but also in PBS and mouse serum (>90% intact [^111In]In-30 at 24 h; Figure S7).

[3] = Stability in phosphate-buffered saline (PBS), radio-HPLC; assay type: physicochemical; details: 24 h post-incubation, 37 °C, indium-111 labeled, intact fraction
Procedure: [^111In]In-22 or [^111In]In-30 (~10 MBq, 20 µL) was mixed with 80 μL of PBS (0.01 M, pH 7.4) and incubated at 37 °C for up to 24 h. A sample of the PBS solution was loaded directly onto the radio-HPLC at 1, 4, and 24 h post-incubation.

[4] = Stability in mouse serum, radio-HPLC; assay type: in vitro ADME; details: 24 h post-incubation, 37 °C, indium-111 labeled, intact fraction
Procedure: [^111In]In-22 or [^111In]In-30 (~35 MBq, 70 µL) was mixed with 330 μL of mouse serum and incubated at 37 °C for up to 24 h. After 1, 4, and 24 h incubation, 50 μL of the mouse serum solution was added to a separate vial containing 50 µL of acetonitrile. The sample was centrifuged at 5000× g for 20 min. The supernatant was analyzed by radio-HPLC.

PSMA [5] = molecular target: PSMA; design: method as in PMID 30097503; details: cited from earlier work
PSMA [6] = system: PSMA; design: method as in PMID 27279903; details: PSMA-binding ligand with different chelators; cited from earlier work
[7] = design: method as in PMID 33495926; details: co-administration of maximum dose of 2000 pmoles PSMA-11; cited from earlier work

Q: Which results are given for `CC(C)CC(NC(=O)C(Cc1ccccc1)NC(=O)C(CC(=O)O)NC(=O)CCCCCSC1=NNC(SCCCCCC(=O)NC(CC(=O)O)C(=O)NC(Cc2ccccc2)C(=O)NC(CC(C)C)C(O)CC(=O)NCCCCCC(=O)NCCCCC(NC(=O)NC(CCC(=O)O)C(=O)O)C(=O)O)=C2CCC(OC(=O)NCCCNC(=O)CN3CCN(CC(=O)O)CCN(CC(=O)O)CCN(CC(=O)O)CC3)CCCC12)C(O)CC(=O)NCCCCCC(=O)NCCCCC(NC(=O)NC(CCC(=O)O)C(=O)O)C(=O)O` [Compound 30, [EuK(Ahx-Sta-L-Phe-Asp-SHx)]2-Tz-TCO-DOTA]?
A: IC50 [1]: 1.05 nM and 1 to 1.6 nM; Stability in aqueous solution [2]: stable; Stability in PBS (%) [3]: > 90%; Stability in Mouse Serum (%) [4]: > 90%

Q: With `N[C@@H](CCC(=O)O)C(=O)[O-].[Na+]` [Monosodium glutamate] as the compound, how does the Ki (PSMA [5]) read?
A: 900 nM

Q: For `O=C(O)CCC(NC(=O)NC(CCCCNC(=O)C(Cc1ccc2ccccc2c1)NC(=O)C1CCC(CNC(=O)CCC(C(=O)O)N2CCN(CC(=O)O)CCN(CC(=O)O)CC2)CC1)C(=O)O)C(=O)O` (stereo not drawn) [NODAGA-conjugate], which Internalization rate (PSMA [6]) is on record?
A: 48.5 ± 16.4%

Q: With `O=C(O)CCc1ccc(O)c(CN(CCN(CC(=O)O)Cc2cc(CCC(=O)NCCCCCC(=O)NCCCC[C@H](NC(=O)N[C@@H](CCC(=O)O)C(=O)O)C(=O)O)ccc2O)CC(=O)O)c1` [PSMA-11] as the compound, how does the “Decrease in kidney uptake of [177Lu]Lu-PSMA” value [7] read?
A: 99.5%

Q: What about the “Decrease in salivary gland uptake of [177Lu]Lu-PSMA” value [7] of the same compound?
A: 89.5%

Q: What about the “Decrease in tumor-uptake of [177Lu]Lu-PSMA” value [7] of the same compound?
A: 44.5%
